# Results as given in patent US20260373229A1, “TOPICALLY APPLICABLE PREPARATION FOR IMPROVING SKIN CONDITION” (priority 2022, published 2026).
# What was measured:
# [1] = test system: innate immune response of the skin; conditions: in synergy with factors originating from the host and microbiome; cited from earlier work
# Staphylococcus aureus = assay: Minimum inhibitory concentration / antimicrobial activity against Staphylococcus aureus in vitro; format: cell-based; conditions: for minimum inhibitory concentration (MIC): Staphylococcus aureus
# C. acnes DSM1897 = assay: Growth of C. acnes DSM1897 in microtiter plates (OD600, anaerobic, 5 days); format: cell-based, Cutibacterium acnes (Propionibacterium acnes)
# Description: The effect of the preparations according to the invention on the growth of C. acnes, S. aureus and S. epidermidis was investigated in in vitro studies.
# C. acnes DSM1897 was incubated under anaerobic conditions at 37 °C. The overnight culture was diluted 1:1000 in Caso medium (casein peptone 17 g/l; soybean meal peptone 3 g/l; sodium chloride 5 g/l; glucose 2.5 g/l; dipotassium hydrogen phosphate 2.5 g/l; pH 7.3±0.2) and seeded in microtiter plates. Different concentrations of the plant extract Glycyrrhiza inflata and licochalcone A (1 μg/ml, 2 μg/ml) were added, mixed and incubated anaerobically at 37 °C for 5 days. […] The optical density (OD) was measured photometrically at a wavelength of 600 nm (OD600) to estimate the growth of the bacteria. […]
# Unless otherwise stated, the quantities refer to the weight of the compound per volume of medium, e.g. 1 μg/ml means 1 μg licochalcone A in 1 ml medium. The percentage quantities of ISW1-2 refer to the weight of ISW1-2 in relation to the total weight of the respective test preparation.
# C. acnes 1897 was incubated without ISW1-2 (FIG. 1 shaded) and with a non-inhibitory concentration of 0.00001% ISW1-2 (FIG. 1 black), wherein different concentrations of licochalcone A Extract (0 μg/ml=control; 1 μg/ml; 2 μg/ml) were added. Bacterial growth or inhibition is measured by the increase/reduction of turbidity in the medium (OD600). […]
# S. epidermidis ATTC12228 = assay: Growth of S. epidermidis 12228 in microtiter plates (OD600, aerobic, 24 h); format: cell-based, Staphylococcus epidermidis; conditions: for effect on growth of S. epidermidis (OD600): 1 μg/ml, 2 μg/ml, without ISW1-2, 24 h, FIGS. 11, 13, 15, 17
# Description: (§1) S. aureus DSM20231 and S. epidermidis ATTC12228 were incubated under aerobic conditions at 37 °C with constant shaking. The overnight cultures were diluted 1:10000 in MHB (Müller Hinton Broth: starch 1.5 g/l; meat infusion 2.0 g/l; peptone from casein (hydrolyzed) 17.5 g/l; pH: 7.4±0.2) and seeded in microtiter plates. […] These experiments were repeated in the presence of a non-inhibitory ISW1-2 concentration (0.00002% ISW1-2). To estimate bacterial growth, the optical density (OD) was measured photometrically at a wavelength of 600 nm (OD600). Increasing values indicate bacterial growth (mean value from three independent experiments).
# In further comparative studies, the influence of the combination of compounds according to the invention was also determined on skin commensal germs, such as S. epidermidis (FIGS. 11 to 18).
# For this purpose, Staphylococcus epidermidis 12228 was incubated without ISW1-2 (FIGS. 11, 13, 15, 17) and with a non-inhibitory concentration of 0.00002% ISW1-2 (FIGS. 12, 14, 16, 18), wherein different concentrations of licochalcone extract; licochalcone A; licochalcone C and licochalcone E (0 μg/ml=control; 1 μg/ml; 2 μg/ml) were present. The bacterial growth over 24 h under the different conditions is shown (mean values from three independent experiments).
# (§2) Bacterial growth is measured by the increase in turbidity in the medium (OD600), i.e. an increase in OD over time indicates bacterial growth.
# S. aureus DSM20231 = assay: Growth of S. aureus DSM20231 in microtiter plates (OD600, aerobic, 24 h); format: cell-based, Staphylococcus aureus; conditions: for synergistic effect with ISW1-2 on S. aureus growth: with 0.00002% ISW1-2, FIGS. 3 to 10
# Description: as §1
# Staphylococcus aureus DSM20231 was incubated without ISW1-2 (FIGS. 3, 5, 7, 9) and with a non-inhibitory concentration of 0.00002% ISW1-2 (FIGS. 4, 6, 8, 10), wherein different concentrations of licochalcone Extract; licochalcone A; licochalcone C and licochalcone E (0 μg/ml=control; 1 μg/ml; 2 μg/ml) were present. FIGS. 3 to 10 show the bacterial growth over 24 hours under the different conditions (mean values from three independent experiments).
# as §2
# FIGS. 7 and 8 show the studies with ISW1-2 and licochalcone C. Four different amounts of licochalcone C were used (0%, control; 1 μg/ml; 2 μg/ml and 4 μg/ml), alone (FIG. 7) and with 0.00002% ISW1-2 (FIG. 8).
# FIGS. 9 and 10 show the studies with ISW1-2 and licochalcone E. Three different amounts of licochalcone E were used (0%, control; 1 μg/ml; 2 μg/ml), alone (FIG. 9) and with 0.00002% ISW1-2 (FIG. 10).
# [2] = test system: membrane potential of the bacteria
smiles,measurement,setting,value
"CC(C)C[C@H]1NC(=O)[C@H](Cc2c[nH]c3ccccc23)NC(=O)[C@@H](C(C)C)NC(=O)[C@H]2NC(SC2(C)C)[C@H](C(C)C)NC(=O)[C@@H](Cc2c[nH]c3ccccc23)NC(=O)[C@H](C(C)C)NC1=O [ISW1-2, cyclo [N-DVal-LTrp-DLeu-LVal-DTrp-LMe2Thz(LVal)-C]]",effect on innate immune response of the skin,[1],supports the innate immune response of the skin
same,sensitivity of skin pathogens such as Staphylococcus aureus,Staphylococcus aureus,particularly sensitive
same,minimum inhibitory concentration (MIC),Staphylococcus aureus,3.1 µg/mL
same,minimum inhibitory concentration (MIC),Staphylococcus aureus; 3.1 μg/ml expressed in %,0.00031%
same,growth inhibition of C. acnes (OD600),"C. acnes DSM1897; 0.00001% ISW1-2 alone, anaerobic, 37 °C, 5 days",non-inhibitory
same,growth inhibition of S. epidermidis (OD600),"S. epidermidis ATTC12228; 0.00002% ISW1-2 alone, 24 h",non-inhibitory
same,growth inhibition of S. aureus (OD600),"S. aureus DSM20231; 0.00002% ISW1-2 alone, 37 °C, 24 h",non-inhibitory
same,mechanism of action,[2]; antibacterial effect,based on proton translocation while maintaining membrane integrity
same,correlation of antibacterial effect with membrane potential drop,[2]; bacteria,correlates strongly with the drop of the membrane potential of the bacteria
C=C(C)[C@@H](C)c1cc(/C=C/C(=O)c2ccc(O)cc2)c(OC)cc1O [licochalcone E],effect on growth of S. epidermidis (OD600),S. epidermidis ATTC12228,No influence on the growth of S. epidermidis was observed
same,synergistic effect with ISW1-2 on S. aureus growth,S. aureus DSM20231,"better synergistic effect with ISW1-2, similar to licochalcone A"
COc1c(/C=C/C(=O)c2ccc(O)cc2)ccc(O)c1CC=C(C)C [licochalcone C],effect on growth of S. epidermidis (OD600),S. epidermidis ATTC12228,No influence on the growth of S. epidermidis was observed
same,synergistic effect with ISW1-2 on S. aureus growth,S. aureus DSM20231,somewhat less synergistically with ISW1-2 than licochalcone A
C=CC(C)(C)c1cc(/C=C/C(=O)c2ccc(O)cc2)c(OC)cc1O [licochalcone A],growth inhibition of C. acnes (OD600),"C. acnes DSM1897; pure extract or pure licochalcone A without ISW1-2, FIGS. 1 and 2",only a minor inhibitory effect
same,effect on growth of S. epidermidis (OD600),S. epidermidis ATTC12228,No influence on the growth of S. epidermidis was observed
